Results reported in patent US20230085307A1, “PYRIDAZINONE COMPOUND AND HERBICIDE” (NISSAN CHEMICAL CORPORATION, priority 2019, published 2023).

System: barnyard grass
Assay: Test Example 3: herbicidal effect by foliage application, Wagner pot (Table 18, symbol H)
Type: in vivo, barnyard grass (Echinochloa crus-galli)
Details: 320 g/ha
In short: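 Plants were sown in alluvial soil held under 0.1–0.5 cm standing water and grown 14 days in a greenhouse at 25–30 °C. An emulsifiable formulation, water-diluted to the set dose, was then sprayed onto the foliage, and effects were scored three weeks later using previously defined criteria.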

| Compound | herbicidal effect on barnyard grass (H) |
| --- | --- |
| CCCC(=O)Oc1c(C)nn(C)c(=O)c1-c1c(-c2ccc(F)cc2)sc2cc(C)c(C)cc12 [5-089] | 1 (Herbicidal rate of 5% or more and less than 20%) |

Same assay, conditions: amount of applied herbicide 320 g/ha

| Compound | Herbicidal effect on H (barnyard grass), foliage application |
| --- | --- |
| Cc1ccc2oc(-c3ccc4c(c3)OCCO4)c(-c3c(O)c(C)nn(C)c3=O)c2c1 [9-012] | 4 (Herbicidal rate of 70% or more and less than 90%) |

System: late watergrass
Assay: Test Example 2: herbicidal activity, application during weed generation under submerged conditions (Table 17, symbol A)
Type: in vivo, late watergrass (Echinochloa oryzicola)
Details: AAH 320 g/ha; application during weed generation, submerged conditions
In short: (§1)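 Alluvial soil in Wagner pots was flooded to 4 cm depth and sown with the three weeds together; pots were kept in a greenhouse at 25° C. to 30° C. At the one to two leaf stage, an emulsion formulation diluted in water to a set rate went onto the water surface; scored three weeks later.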

| Compound | herbicidal effect rating, A: late watergrass |
| --- | --- |
| Cc1ccc2oc(-c3ccc4c(c3)OCCO4)c(-c3c(O)c(C)nn(C)c3=O)c2c1 [9-012] | 1 (Herbicidal rate of 5% or more and less than 20%) |
| CCCC(=O)Oc1c(C)nn(C)c(=O)c1-c1c(-c2ccc(F)cc2)sc2cc(C)c(C)cc12 [5-089] | 3 (Herbicidal rate of 40% or more and less than 70%) |

System: blackgrass
Assay: Test Example 4: herbicidal effect by soil treatment (Table 19, symbol J)
Type: in vivo, blackgrass (Alopecurus myosuroides)
Details: amount of applied herbicide 320 g/ha
In short: (§2)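 Step 1: sow seeds in sterilized diluvial soil, cover ~1.5 cm. Step 2: spray diluted emulsion onto soil surface at predetermined rate. Step 3: greenhouse, 25–30° C, three weeks. Step 4: grade effect on each plant by earlier criteria.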

| Compound | J: blackgrass, herbicidal effect grade |
| --- | --- |
| Cc1ccc2oc(-c3ccc4c(c3)OCCO4)c(-c3c(O)c(C)nn(C)c3=O)c2c1 [9-012] | 0 (Herbicidal rate of 5% or less (almost no effect)) |
| CCCC(=O)Oc1c(C)nn(C)c(=O)c1-c1c(-c2ccc(F)cc2)sc2cc(C)c(C)cc12 [5-089] | 0 (Herbicidal rate of 5% or less (almost no effect)) |

System: lambsquarters
Assay: Test Example 5: herbicidal effect by foliage application, plastic box (Table 20, symbol O)
Type: in vivo, lambsquarters (Chenopodium album)
Details: foliage application, 320 g/ha, three weeks after application
In short: (§3)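 Foliar spray test: emulsion formulation diluted in water to a set application rate, sprayed onto 14-day-old plants raised in diluvial soil at 25° C to 30° C under glass. Both herbicidal effect and crop effect rated visually three weeks later.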

| Compound | herbicidal effect on lambsquarters (O) |
| --- | --- |
| Cc1ccc2oc(-c3ccc4c(c3)OCCO4)c(-c3c(O)c(C)nn(C)c3=O)c2c1 [9-012] | 3 (Herbicidal rate of 40% or more and less than 70%) |
| CCCC(=O)Oc1c(C)nn(C)c(=O)c1-c1c(-c2ccc(F)cc2)sc2cc(C)c(C)cc12 [5-089] | 0 (Herbicidal rate of 5% or less (almost no effect)) |

System: chickweed
Assay: Test Example 4: herbicidal effect by soil treatment (Table 19, symbol P)
Type: in vivo, common chickweed (Stellaria media)
Details: amount of applied herbicide 320 g/ha
In short: as §2

| Compound | P: chickweed, herbicidal effect grade |
| --- | --- |
| Cc1ccc2oc(-c3ccc4c(c3)OCCO4)c(-c3c(O)c(C)nn(C)c3=O)c2c1 [9-012] | 3 (Herbicidal rate of 40% or more and less than 70%) |
| CCCC(=O)Oc1c(C)nn(C)c(=O)c1-c1c(-c2ccc(F)cc2)sc2cc(C)c(C)cc12 [5-089] | 0 (Herbicidal rate of 5% or less (almost no effect)) |

System: southern crabgrass
Assay: Test Example 5: herbicidal effect by foliage application, plastic box (Table 20, symbol F)
Type: in vivo, southern crabgrass (Digitaria ciliaris)
Details: foliage application, 320 g/ha, three weeks after application
In short: as §3

| Compound | herbicidal effect on southern crabgrass (F) |
| --- | --- |
| Cc1ccc2oc(-c3ccc4c(c3)OCCO4)c(-c3c(O)c(C)nn(C)c3=O)c2c1 [9-012] | 3 (Herbicidal rate of 40% or more and less than 70%) |
| CCCC(=O)Oc1c(C)nn(C)c(=O)c1-c1c(-c2ccc(F)cc2)sc2cc(C)c(C)cc12 [5-089] | 0 (Herbicidal rate of 5% or less (almost no effect)) |

System: redroot pigweed
Assay: Test Example 4: herbicidal effect by soil treatment (Table 19, symbol N)
Type: in vivo, redroot pigweed (Amaranthus retroflexus)
Details: amount of applied herbicide 320 g/ha
In short: as §2

| Compound | N: redroot pigweed, herbicidal effect grade |
| --- | --- |
| Cc1ccc2oc(-c3ccc4c(c3)OCCO4)c(-c3c(O)c(C)nn(C)c3=O)c2c1 [9-012] | 3 (Herbicidal rate of 40% or more and less than 70%) |
| CCCC(=O)Oc1c(C)nn(C)c(=O)c1-c1c(-c2ccc(F)cc2)sc2cc(C)c(C)cc12 [5-089] | 0 (Herbicidal rate of 5% or less (almost no effect)) |

System: oval-leafed pondweed
Assay: Test Example 1: herbicidal activity, application before weed generation under submerged conditions (Table 16, symbol C)
Type: in vivo, oval-leafed pondweed (Monochoria vaginalis)
Details: amount of applied herbicide 320 g/ha
In short: (§4)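 Alluvial soil was flooded to 4 cm depth, weed seeds were sown mixed and 2.5-leaf rice seedlings were transplanted. On sowing day, the compound's emulsion, diluted in water to a set dose, was applied to the water surface. Plants grew at 25–30 °C and were scored 0–5 after three weeks.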

| Compound | Herbicidal effect, C: oval-leafed pondweed |
| --- | --- |
| Cc1ccc2oc(-c3ccc4c(c3)OCCO4)c(-c3c(O)c(C)nn(C)c3=O)c2c1 [9-012] | 5 (Herbicidal rate of 90% or more (almost completely withered)) |
| CCCC(=O)Oc1c(C)nn(C)c(=O)c1-c1c(-c2ccc(F)cc2)sc2cc(C)c(C)cc12 [5-089] | 0 (Herbicidal rate of 5% or less (almost no effect)) |

System: persian speedwell
Assay: Test Example 5: herbicidal effect by foliage application, plastic box (Table 20, symbol R)
Type: in vivo, Persian speedwell (Veronica persica)
Details: foliage application, 320 g/ha, three weeks after application
In short: as §3

| Compound | herbicidal effect on persian speedwell (R) |
| --- | --- |
| Cc1ccc2oc(-c3ccc4c(c3)OCCO4)c(-c3c(O)c(C)nn(C)c3=O)c2c1 [9-012] | 5 (Herbicidal rate of 90% or more (almost completely withered)) |
| CCCC(=O)Oc1c(C)nn(C)c(=O)c1-c1c(-c2ccc(F)cc2)sc2cc(C)c(C)cc12 [5-089] | 1 (Herbicidal rate of 5% or more and less than 20%) |

System: wild oat
Assay: Test Example 5: herbicidal effect by foliage application, plastic box (Table 20, symbol I)
Type: in vivo, wild oat (Avena fatua)
Details: foliage application, 320 g/ha, three weeks after application
In short: as §3

| Compound | herbicidal effect on wild oat (I) |
| --- | --- |
| Cc1ccc2oc(-c3ccc4c(c3)OCCO4)c(-c3c(O)c(C)nn(C)c3=O)c2c1 [9-012] | 0 (Herbicidal rate of 5% or less (almost no effect)) |
| CCCC(=O)Oc1c(C)nn(C)c(=O)c1-c1c(-c2ccc(F)cc2)sc2cc(C)c(C)cc12 [5-089] | 0 (Herbicidal rate of 5% or less (almost no effect)) |

System: barnyard grass
Assay: Test Example 4: herbicidal effect by soil treatment (Table 19, symbol H)
Type: in vivo, barnyard grass (Echinochloa crus-galli)
Details: amount of applied herbicide 320 g/ha
In short: as §2

| Compound | H: barnyard grass, herbicidal effect grade |
| --- | --- |
| Cc1ccc2oc(-c3ccc4c(c3)OCCO4)c(-c3c(O)c(C)nn(C)c3=O)c2c1 [9-012] | 2 (Herbicidal rate of 20% or more and less than 40%) |
| CCCC(=O)Oc1c(C)nn(C)c(=O)c1-c1c(-c2ccc(F)cc2)sc2cc(C)c(C)cc12 [5-089] | 0 (Herbicidal rate of 5% or less (almost no effect)) |

System: southern crabgrass
Assay: Test Example 4: herbicidal effect by soil treatment (Table 19, symbol F)
Type: in vivo, southern crabgrass (Digitaria ciliaris)
Details: amount of applied herbicide 320 g/ha
In short: as §2

| Compound | F: southern crabgrass, herbicidal effect grade |
| --- | --- |
| Cc1ccc2oc(-c3ccc4c(c3)OCCO4)c(-c3c(O)c(C)nn(C)c3=O)c2c1 [9-012] | 2 (Herbicidal rate of 20% or more and less than 40%) |
| CCCC(=O)Oc1c(C)nn(C)c(=O)c1-c1c(-c2ccc(F)cc2)sc2cc(C)c(C)cc12 [5-089] | 0 (Herbicidal rate of 5% or less (almost no effect)) |

System: Japanese bulrush
Assay: Test Example 1: herbicidal activity, application before weed generation under submerged conditions (Table 16, symbol B)
Type: in vivo, Japanese bulrush (Schoenoplectus juncoides)
Details: amount of applied herbicide 320 g/ha
In short: as §4

| Compound | Herbicidal effect, B: Japanese bulrush |
| --- | --- |
| Cc1ccc2oc(-c3ccc4c(c3)OCCO4)c(-c3c(O)c(C)nn(C)c3=O)c2c1 [9-012] | 5 (Herbicidal rate of 90% or more (almost completely withered)) |
| CCCC(=O)Oc1c(C)nn(C)c(=O)c1-c1c(-c2ccc(F)cc2)sc2cc(C)c(C)cc12 [5-089] | 0 (Herbicidal rate of 5% or less (almost no effect)) |

System: Japanese bulrush
Assay: Test Example 2: herbicidal activity, application during weed generation under submerged conditions (Table 17, symbol B)
Type: in vivo, Japanese bulrush (Schoenoplectus juncoides)
Details: AAH 320 g/ha; application during weed generation, submerged conditions
In short: as §1

| Compound | herbicidal effect rating, B: Japanese bulrush |
| --- | --- |
| Cc1ccc2oc(-c3ccc4c(c3)OCCO4)c(-c3c(O)c(C)nn(C)c3=O)c2c1 [9-012] | 4 (Herbicidal rate of 70% or more and less than 90%) |
| CCCC(=O)Oc1c(C)nn(C)c(=O)c1-c1c(-c2ccc(F)cc2)sc2cc(C)c(C)cc12 [5-089] | 0 (Herbicidal rate of 5% or less (almost no effect)) |

System: blackgrass
Assay: Test Example 5: herbicidal effect by foliage application, plastic box (Table 20, symbol J)
Type: in vivo, blackgrass (Alopecurus myosuroides)
Details: foliage application, 320 g/ha, three weeks after application
In short: as §3

| Compound | herbicidal effect on blackgrass (J) |
| --- | --- |
| Cc1ccc2oc(-c3ccc4c(c3)OCCO4)c(-c3c(O)c(C)nn(C)c3=O)c2c1 [9-012] | 0 (Herbicidal rate of 5% or less (almost no effect)) |
| CCCC(=O)Oc1c(C)nn(C)c(=O)c1-c1c(-c2ccc(F)cc2)sc2cc(C)c(C)cc12 [5-089] | 0 (Herbicidal rate of 5% or less (almost no effect)) |

System: green foxtail
Assay: Test Example 5: herbicidal effect by foliage application, plastic box (Table 20, symbol G)
Type: in vivo, green foxtail (Setaria viridis)
Details: foliage application, 320 g/ha, three weeks after application
In short: as §3

| Compound | herbicidal effect on green foxtail (G) |
| --- | --- |
| Cc1ccc2oc(-c3ccc4c(c3)OCCO4)c(-c3c(O)c(C)nn(C)c3=O)c2c1 [9-012] | 2 (Herbicidal rate of 20% or more and less than 40%) |
| CCCC(=O)Oc1c(C)nn(C)c(=O)c1-c1c(-c2ccc(F)cc2)sc2cc(C)c(C)cc12 [5-089] | 0 (Herbicidal rate of 5% or less (almost no effect)) |
